Assay [1] deals with noncancer cells. Kind of assay: MTT assay, mean IC50 in noncancer cell panel. The assay is classed as cell-based. The settings on record: Homo sapiens, mean over PNT2, RWPE-1, HEK293, MRC-9, 48 h. An excerpt: To examine the anticancer potential and selectivity of NB, we used a panel of six human prostate cancer cell lines, harboring different levels of treatment resistance to representatively reflect the heterogeneity of the disease. […] Additionally, four human noncancer cells lines were utilized in order to determine the selectivity of NB towards prostate cancer cells, i.e., prostate noncancer PNT2 and RWPE-1 cells, human embryonic kidney HEK 293T cells, and human fibroblasts MRC-9. The different cell lines were treated with NB and the cell viability was examined using MTT assay (Figure 1). The mean IC50 of NB and docetaxel (used as a reference substance) in noncancerous cell lines was divided by the mean IC50 in the prostate cancer cell lines to determine the selectivity index (SI).
The MTT assay was used to monitor the effect of the drugs on cell viability in terms of metabolic activity, as previously reported. First, preincubation of the cells in 96-well plates (6 × 10^3 cells/well in 100 μL/well) was performed overnight in the correspondent culture medium. Next, the medium was exchanged for fresh medium containing the investigated compounds or a vehicle (100 μL/well). […] Finally, 50 μL/well of DMSO were added to solve the formed formazan crystals produced by the metabolic active cells and Infinite F200PRO reader (TECAN, Männedorf, Switzerland) was used to measure the cell viability. […]

The subject of assay [2] is 22Rv1 cells. Kind of assay: Cell cycle progression and DNA fragmentation analysis (PI, flow cytometry). In kind it is cell-based, human. The settings on record: 22Rv1, 48 h. How it is done: Figure 4 Investigation of the proapoptotic activity of NB. Flow cytometry analysis of 22Rv1 cells after 48 h of treatment. (A) Cell cycle and DNA fragmentation analysis. Treated cells were stained with PI and analyzed using a flow cytometry technique. Sub-G1 population was assumed to be apoptotic cells containing fragmentated DNA. (B) Analysis of phosphatidylserine externalization. Treated cells were double-stained with annexin-V-FITC and PI and analyzed using the flow cytometry technique. Cells of the low left quadrant (annexin-V-FITC^−/PI^−) were considered as alive cells. The Cell Quest Pro v.5.2.1 software (BD Bioscience, San Jose, CA, USA) was used to analyze and quantify the FACS data. Cells treated for 48 h with 10 µM of anisomycin were used as a positive control. Number of replicates n = 3. Statistical significance: * p < 0.05 (ANOVA). […]
DNA fragmentation and cell cycle progression of treated and untreated cells (negative control) were analyzed by flow cytometry as previously described. […]

The test system of assay [3] is p-gp in PC3-DR cells. Kind of assay: Western blotting, p-gp expression. In kind it is cell-based, human. The settings on record: 48 h, up to 6 µM. How it is done:
Number of replicates n = 3. […] Viability was measured using an MTT assay. Number of replicates n = 3.
It is important to note that a reduction in p-gp activity could be conditioned by p-gp degradation or cell death-related processes. Consequently, using a Western blotting analysis, we measured p-gp expressional levels in the treated PC3-DR cells. […] Thus, the observed effect on p-gp activity seems to be exclusively related to the interaction of NB with p-gp rather than result from any cell death-related events.
The Western blot assay was executed as previously described: 1 × 10^6 cells were seeded in Petri dishes (ø 6 cm, 5 mL/dish) and incubated overnight. On the next day, the cells were treated with the compounds in fresh culture media (5 mL/dish) for the indicated time. Next, cells were harvested with a cell scraper and lysed in lysis buffer including protease and phosphatase inhibitors cocktail (Roche, Mannheim, Germany). Cell debris were removed from the protein lysates via centrifugation. Afterwards, the cell-free protein mixtures were separated in gradient ready-made Mini-PROTEAN® TGX Stain-Free^TM gels (Bio-Rad, Hercules, CA, USA) using SDS-PAGE (sodium dodecylsulfate polyacrylamide gel electrophoresis). Then, the proteins were blotted onto ø 0.2 µm pore PVDF membrane. […] The signals were detected using the ECL chemiluminescence system (Thermo Scientific, Rockford, IL, USA).

`COc1ccc(C2SSC34CC5(O)C(Cl)C=CC(O)C5ON3C(=O)C2N(C)C4=O)c(O)c1OC` (stereo not shown) [NB, N-methylpretrichodermamide B] displayed an IC50 in assay [1] of 15.5 µM. Further, in assay [2], the “DNA fragmentation (sub-G1 population)” value is listed as “caused DNA fragmentation” and the cell cycle arrest result is on record as “G1-phase arrest”. Further, the p-gp expression result in assay [3] is recorded as “no significant changes in p-gp expression”.

The values above are taken from article PMC9605374 (Marine Drugs, 2022).
